According to ChEMBL document CHEMBL3259548, “Design, synthesis and biological evaluation of novel isoniazid derivatives with potent antitubercular activity” (Eur J Med Chem, 2014):
≈ marks a conversion by molar mass, not a printed value.

Experiments:
Type in all cases: functional
[1] = test system: Mycobacterium tuberculosis; test: Antitubercular activity against Mycobacterium tuberculosis H37Rv clinical isolate harboring katG S315T mutant by BACTEC 960 assay
[2] = test system: Mycobacterium tuberculosis; test: Antitubercular activity against katG-deficient isoniazid-resistant Mycobacterium tuberculosis H37Rv ATCC 27294 by BACTEC 960 assay
[3] = test system: Mycobacterium tuberculosis; test: Ratio of isoniazid MIC to compound MIC for Mycobacterium tuberculosis H37Rv clinical isolate harboring katG S315T mutant by BACTEC 960 assay

| Structure (SMILES) | MIC [1] [µM] | MIC [2] [µM] | Ratio [3] |
| --- | --- | --- | --- |
| CC(=O)NNC(=O)c1ccncc1 | >55.8 | > 55.8 |  |
| O=Cc1cccc(/C=N/NC(=O)c2ccncc2)c1 | >39.5 | > 39.5 |  |
| O=Cc1ccc(/C=N/NC(=O)c2ccncc2)cc1 | >39.5 | > 39.5 |  |
| O=C(N/N=C/c1cccc(CO)c1)c1ccncc1 | 39.2 (≈ 10 µg/mL) | > 39.2 |  |
| O=C(N/N=C/c1ccc(CO)cc1)c1ccncc1 | 39.2 (≈ 10 µg/mL) | > 39.2 |  |
| O=C(NN=C1CCCC1)c1ccncc1 | 39.4 (≈ 8.01 µg/mL) | > 49.2 |  |
| O=C(NN=C1CCC(c2ccccc2)CC1)c1ccncc1 (stereo not given) | 34.1 (≈ 10 µg/mL) | > 34.1 |  |
| COC(=O)c1ccc(/C=N/NC(=O)c2ccncc2)cc1 | 21.2 (≈ 6.01 µg/mL) |  |  |
| O=C(N/N=C/c1ccc(Oc2ccccc2)cc1)c1ccncc1 | 18.9 (≈ 6 µg/mL) |  |  |
| CCCCCCCCCC(=O)NNC(=O)c1ccncc1 | 6.9 (≈ 2.01 µg/mL) | > 34.3 | 6 |
| CCCCCC(C)C(=O)NNC(=O)c1ccncc1 (stereo not given) | >38 |  |  |
| O=C(NNC1CCC(c2ccccc2)CC1)c1ccncc1 (stereo not given) | >33.9 | > 33.9 |  |
| NNC(=O)c1ccnc(NN)c1 | 47.9 (≈ 8.01 µg/mL) |  |  |
| NNC(=O)c1ccncc1 [ISONIAZID] | 43.8 (≈ 6.01 µg/mL) | > 72.9 |  |
